Laboratory results taken from ChEMBL document CHEMBL1132842, “Novel antifungals based on 4-substituted imidazole: solid-phase synthesis of substituted aryl sulfonamides towards optimization of in vitro activity” (Bioorg Med Chem Lett, 2000).
≈ marks a conversion by molar mass, not a printed value.

Key:
mold = test: Concentration required to inhibit growth of pathogenic molds; type: functional
Saccharomyces cerevisiae [1] = test: Concentration required to inhibit 65% growth of selected sets of Yeasts; type: functional
Trichophyton benhamiae = test: Minimum concentration required to inhibit the growth of Trichophyton mentagrophytes; type: functional, Arthroderma benhamiae
Candida tropicalis = test: Minimum concentration required to inhibit the growth of Candida tropicalis; type: functional
Cryptococcus neoformans = test: Minimum concentration required to inhibit the growth of Cryptococcus neoformans; type: functional
Pichia kudriavzevii = test: Minimum concentration required to inhibit the growth of Candida krusei; type: functional
Candida albicans [2] = test: Minimum concentration required to inhibit the growth of Candida albicans 2; type: functional
Aspergillus fumigatus = test: Minimum concentration required to inhibit the growth of Aspergillus fumigatus; type: functional
Trichophyton rubrum = test: Minimum concentration required to inhibit the growth of Trichophyton rubrum; type: functional
Candida albicans [3] = test: Minimum concentration required to inhibit the growth of Candida albicans 1; type: functional
Nakaseomyces glabratus = test: Minimum concentration required to inhibit the growth of Candida glabrata; type: functional
Candida parapsilosis = test: Minimum concentration required to inhibit the growth of Candida parapsilosis; type: functional; details: Lodderomyces parapsilosis
Kluyveromyces marxianus = test: Minimum concentration required to inhibit the growth of Candida kefyr; type: functional
Candida albicans [4] = test: Minimum concentration required to inhibit the growth of Candida albicans 4; type: functional
Microsporum canis = test: Minimum concentration required to inhibit the growth of […] canis; type: functional
Sporothrix schenckii = test: Minimum concentration required to inhibit the growth of Sporothrix schenck ii; type: functional
Saccharomyces cerevisiae [5] = test: Concentration required to inhibit 65% growth of Yeast strains; type: functional

O=S(=O)(c1ccc(-c2ccsc2)cc1)N(Cc1c[nH]cn1)CC1CCCCC1
pLADM (mold): 4.4
pLADY (Saccharomyces cerevisiae [1]): 6.1

CCC(C)n1ncn(-c2ccc(N3CCN(c4ccc(OCC5COC(Cn6cncn6)(c6ccc(Cl)cc6Cl)O5)cc4)CC3)cc2)c1=O (stereo not given) [ITRACONAZOLE]
MIC (Trichophyton benhamiae): 0.1 µM (≈ 0.0706 µg/mL)
MIC (Candida tropicalis): 0.1 µM (≈ 0.0706 µg/mL)
MIC (Cryptococcus neoformans): ≤ 0.1 µM
MIC (Pichia kudriavzevii): 1 µM (≈ 0.706 µg/mL)
MIC (Candida albicans [2]): ≤ 0.1 µM
MIC (Aspergillus fumigatus): 1 µM (≈ 0.706 µg/mL)
MIC (Trichophyton rubrum): ≤ 0.1 µM
MIC (Candida albicans [3]): > 10 µM
MIC (Nakaseomyces glabratus): 1 µM (≈ 0.706 µg/mL)
MIC (Candida parapsilosis): ≤ 0.1 µM
MIC (Kluyveromyces marxianus): ≤ 0.1 µM
MIC (Candida albicans [4]): > 10 µM
MIC (Microsporum canis): ≤ 0.1 µM
MIC (Sporothrix schenckii): 10 µM (≈ 7.06 µg/mL)

O=S(=O)(c1ccc(-c2ccc(Cl)cc2)cc1)N(Cc1c[nH]cn1)CC1CCCCC1
pLADM (mold): 4.4
pLADY (Saccharomyces cerevisiae [1]): 6.3

COc1ccc(-c2ccc(S(=O)(=O)N(Cc3c[nH]cn3)C(C(C)C)C(C)C)cc2)cc1
pLADM (mold): 5
pLADY (Saccharomyces cerevisiae [1]): 6.4

O=S(=O)(c1ccc(N2CCN(c3cccc(C(F)(F)F)c3)CC2)cc1)N(Cc1c[nH]cn1)CC1CCCCC1
pLADM (mold): 4
pLADY (Saccharomyces cerevisiae [1]): 6.3

CC(C)C(C(C)C)N(Cc1c[nH]cn1)S(=O)(=O)c1ccc(-c2ccc(F)cc2)cc1
MIC (Trichophyton benhamiae): 10 µM (≈ 4.3 µg/mL)
MIC (Candida tropicalis): ≤ 0.1 µM
MIC (Cryptococcus neoformans): ≤ 0.1 µM
MIC (Pichia kudriavzevii): 1 µM (≈ 0.43 µg/mL)
MIC (Candida albicans [2]): ≤ 0.1 µM
MIC (Aspergillus fumigatus): 10 µM (≈ 4.3 µg/mL)
MIC (Trichophyton rubrum): 1 µM (≈ 0.43 µg/mL)
MIC (Candida albicans [3]): > 10 µM
pLADM (mold): 5.2
MIC (Nakaseomyces glabratus): 1 µM (≈ 0.43 µg/mL)
pLADY (Saccharomyces cerevisiae [5]): 6.8
MIC (Candida parapsilosis): ≤ 0.1 µM
MIC (Kluyveromyces marxianus): ≤ 0.1 µM
MIC (Candida albicans [4]): 1 µM (≈ 0.43 µg/mL)
MIC (Microsporum canis): 1 µM (≈ 0.43 µg/mL)
MIC (Sporothrix schenckii): > 10 µM

CC(C)C(C(C)C)N(Cc1c[nH]cn1)S(=O)(=O)c1ccc(-c2ccccc2)cc1
pLADM (mold): 5.2
pLADY (Saccharomyces cerevisiae [1]): 6.6

O=S(=O)(c1ccc(NCCc2ccc(Cl)cc2Cl)cc1)N(Cc1c[nH]cn1)CC1CCCCC1
pLADM (mold): 4
pLADY (Saccharomyces cerevisiae [1]): 5.4

O=S(=O)(c1ccc(N2CCCCC2)cc1)N(CCc1ccccc1F)Cc1c[nH]cn1
pLADM (mold): 4.2
pLADY (Saccharomyces cerevisiae [1]): 5.9

CN1CCN(c2ccc(S(=O)(=O)N(Cc3c[nH]cn3)CC3CCCCC3)cc2)CC1
pLADM (mold): 4
pLADY (Saccharomyces cerevisiae [1]): 4.6

CC(C)C(C(C)C)N(Cc1c[nH]cn1)S(=O)(=O)c1ccc(N2CCN(c3ccc(F)cc3)CC2)cc1
pLADM (mold): 4
pLADY (Saccharomyces cerevisiae [1]): 6.4

CCC(CC)Nc1ccc(S(=O)(=O)N(Cc2c[nH]cn2)C(C(C)C)C(C)C)cc1
pLADM (mold): 4
pLADY (Saccharomyces cerevisiae [1]): 6.5

O=S(=O)(c1ccc(CNCCc2ccc(Cl)cc2Cl)cc1)N(CCc1ccc(F)cc1)Cc1c[nH]cn1
pLADM (mold): 4.4
pLADY (Saccharomyces cerevisiae [1]): 6.1

CN(c1ccc(S(=O)(=O)N(Cc2c[nH]cn2)CC2CCCCC2)cc1)C1CCCCC1
pLADM (mold): 4
pLADY (Saccharomyces cerevisiae [1]): 5.5

C[C@@H](c1ncncc1F)[C@](O)(Cn1cncn1)c1ccc(F)cc1F [VORICONAZOLE]
MIC (Trichophyton benhamiae): ≤ 0.1 µM
MIC (Candida tropicalis): 1 µM (≈ 0.349 µg/mL)
MIC (Cryptococcus neoformans): 1 µM (≈ 0.349 µg/mL)
MIC (Pichia kudriavzevii): 10 µM (≈ 3.49 µg/mL)
MIC (Candida albicans [2]): ≤ 0.1 µM
MIC (Aspergillus fumigatus): 1 µM (≈ 0.349 µg/mL)
MIC (Trichophyton rubrum): ≤ 0.1 µM
MIC (Candida albicans [3]): > 10 µM
MIC (Nakaseomyces glabratus): 10 µM (≈ 3.49 µg/mL)
MIC (Candida parapsilosis): ≤ 0.1 µM
MIC (Kluyveromyces marxianus): ≤ 0.1 µM
MIC (Microsporum canis): 1 µM (≈ 0.349 µg/mL)
MIC (Sporothrix schenckii): > 10 µM

O=S(=O)(c1ccc(N2CCN(c3ccccc3Cl)CC2)cc1)N(CCc1ccccc1F)Cc1c[nH]cn1
pLADM (mold): 4.2
pLADY (Saccharomyces cerevisiae [1]): 6

CCCCOc1ccc(S(=O)(=O)N(CCc2ccc(F)cc2)Cc2c[nH]cn2)cc1
MIC (Trichophyton benhamiae): > 10 µM
MIC (Candida tropicalis): ≤ 0.1 µM
MIC (Cryptococcus neoformans): 1 µM (≈ 0.432 µg/mL)
MIC (Pichia kudriavzevii): > 10 µM
MIC (Candida albicans [2]): ≤ 0.1 µM
MIC (Aspergillus fumigatus): > 10 µM
MIC (Trichophyton rubrum): 1 µM (≈ 0.432 µg/mL)
MIC (Candida albicans [3]): > 10 µM
MIC (Nakaseomyces glabratus): 10 µM (≈ 4.32 µg/mL)
MIC (Candida parapsilosis): 1 µM (≈ 0.432 µg/mL)
MIC (Kluyveromyces marxianus): ≤ 0.1 µM
MIC (Candida albicans [4]): 10 µM (≈ 4.32 µg/mL)
MIC (Microsporum canis): 10 µM (≈ 4.32 µg/mL)
MIC (Sporothrix schenckii): > 10 µM

CC(C)C(C(C)C)N(Cc1c[nH]cn1)S(=O)(=O)c1ccc(-c2ccc(Cl)cc2)cc1
pLADM (mold): 5.4
pLADY (Saccharomyces cerevisiae [1]): 6.4

O=S(=O)(c1ccc(CNCCc2ccc(Cl)cc2Cl)cc1)N(Cc1c[nH]cn1)CC1CCCCC1
MIC (Trichophyton benhamiae): > 10 µM
MIC (Candida tropicalis): 1 µM (≈ 0.536 µg/mL)
MIC (Cryptococcus neoformans): 1 µM (≈ 0.536 µg/mL)
MIC (Pichia kudriavzevii): 1 µM (≈ 0.536 µg/mL)
MIC (Candida albicans [2]): ≤ 0.1 µM
MIC (Aspergillus fumigatus): > 10 µM
MIC (Trichophyton rubrum): 10 µM (≈ 5.36 µg/mL)
MIC (Candida albicans [3]): 10 µM (≈ 5.36 µg/mL)
pLADM (mold): 4.4
MIC (Nakaseomyces glabratus): 10 µM (≈ 5.36 µg/mL)
pLADY (Saccharomyces cerevisiae [5]): 6.5
MIC (Candida parapsilosis): < 0.1 µM
MIC (Kluyveromyces marxianus): ≤ 0.1 µM
MIC (Candida albicans [4]): 1 µM (≈ 0.536 µg/mL)
MIC (Microsporum canis): 10 µM (≈ 5.36 µg/mL)
MIC (Sporothrix schenckii): > 10 µM

O=S(=O)(c1ccc(N2CCN(c3ccccn3)CC2)cc1)N(Cc1c[nH]cn1)CC1CCCCC1
pLADM (mold): 4
pLADY (Saccharomyces cerevisiae [1]): 6.4

COc1ccc(-c2ccc(S(=O)(=O)N(Cc3c[nH]cn3)CC3CCCCC3)cc2)cc1
pLADM (mold): 4.4
pLADY (Saccharomyces cerevisiae [1]): 6.3

O=S(=O)(c1ccc(N2CCN(c3ccc(F)cc3)CC2)cc1)N(CCc1ccccc1F)Cc1c[nH]cn1
pLADM (mold): 4.4
pLADY (Saccharomyces cerevisiae [1]): 6.8

CCCCOc1ccc(S(=O)(=O)N(Cc2c[nH]cn2)C(CC)C2CCCCC2)cc1 (stereo not given)
MIC (Trichophyton benhamiae): 10 µM (≈ 4.34 µg/mL)
MIC (Candida tropicalis): 1 µM (≈ 0.434 µg/mL)
MIC (Cryptococcus neoformans): 1 µM (≈ 0.434 µg/mL)
MIC (Pichia kudriavzevii): 1 µM (≈ 0.434 µg/mL)
MIC (Candida albicans [2]): ≤ 0.1 µM
MIC (Aspergillus fumigatus): > 10 µM
MIC (Trichophyton rubrum): 1 µM (≈ 0.434 µg/mL)
MIC (Candida albicans [3]): > 10 µM
MIC (Nakaseomyces glabratus): 1 µM (≈ 0.434 µg/mL)
MIC (Candida parapsilosis): ≤ 0.1 µM
MIC (Kluyveromyces marxianus): ≤ 0.1 µM
MIC (Candida albicans [4]): ≤ 0.1 µM
MIC (Microsporum canis): 1 µM (≈ 0.434 µg/mL)
MIC (Sporothrix schenckii): > 10 µM

O=S(=O)(c1ccc(CN2CCN(c3ccccn3)CC2)cc1)N(Cc1c[nH]cn1)CC1CCCCC1
pLADM (mold): 4
pLADY (Saccharomyces cerevisiae [1]): 6.4

CC(=O)Nc1cccc(-c2ccc(S(=O)(=O)N(Cc3c[nH]cn3)CC3CCCCC3)cc2)c1
pLADM (mold): 4
pLADY (Saccharomyces cerevisiae [1]): 4.1

O=S(=O)(c1ccc(-c2ccc(F)cc2)cc1)N(Cc1c[nH]cn1)C1CCCCC1
pLADM (mold): 4.4
pLADY (Saccharomyces cerevisiae [1]): 5.8

O=S(=O)(c1ccc(N2CCOCC2)cc1)N(CCc1ccccc1F)Cc1c[nH]cn1
pLADM (mold): 4
pLADY (Saccharomyces cerevisiae [1]): 4.5

CCCCCCN(Cc1c[nH]cn1)S(=O)(=O)c1ccc(-c2ccc(F)cc2)cc1
pLADM (mold): 4.8
pLADY (Saccharomyces cerevisiae [1]): 5.9

Cc1ccc(N2CCN(c3ccc(S(=O)(=O)N(Cc4c[nH]cn4)CC4CCCCC4)cc3)CC2)cc1
pLADM (mold): 4
pLADY (Saccharomyces cerevisiae [1]): 6.3

O=S(=O)(c1ccc(N2CCN(c3ccc(F)cc3)CC2)cc1)N(Cc1c[nH]cn1)CC1CCCCC1
MIC (Trichophyton benhamiae): > 10 µM
MIC (Candida tropicalis): ≤ 0.1 µM
MIC (Cryptococcus neoformans): 1 µM (≈ 0.512 µg/mL)
MIC (Pichia kudriavzevii): 10 µM (≈ 5.12 µg/mL)
MIC (Candida albicans [2]): ≤ 0.1 µM
MIC (Aspergillus fumigatus): > 10 µM
MIC (Trichophyton rubrum): 10 µM (≈ 5.12 µg/mL)
MIC (Candida albicans [3]): > 10 µM
pLADM (mold): 4
MIC (Nakaseomyces glabratus): 10 µM (≈ 5.12 µg/mL)
pLADY (Saccharomyces cerevisiae [5]): 6.9
MIC (Candida parapsilosis): ≤ 0.1 µM
MIC (Kluyveromyces marxianus): ≤ 0.1 µM
MIC (Candida albicans [4]): ≤ 0.1 µM
MIC (Microsporum canis): 10 µM (≈ 5.12 µg/mL)
MIC (Sporothrix schenckii): > 10 µM

O=S(=O)(c1ccc(N2CCN(c3ccc(Cl)c(Cl)c3)CC2)cc1)N(CCc1ccccc1F)Cc1c[nH]cn1
pLADM (mold): 4
pLADY (Saccharomyces cerevisiae [1]): 5.8

O=S(=O)(c1ccc(-c2ccc(F)cc2)cc1)N(Cc1c[nH]cn1)CC1CCCCC1
pLADM (mold): 4.4
pLADY (Saccharomyces cerevisiae [1]): 6.3

O=S(=O)(c1ccc(COc2ccc(F)cc2)cc1)N(Cc1c[nH]cn1)CC1CCCCC1
pLADM (mold): 4.4
pLADY (Saccharomyces cerevisiae [1]): 6.1
